Measured values: patent US12447156B2, “Treating progressive familial intrahepatic cholestasis (PFIC) with IBAT inhibitors” (ALBIREO AB, priority 2020, dated 2025)
Marks after values point to notes of the source that are not given here.

Test system: patients with PFIC3 or PFIC6
Experiment: PEDFIC 2: efficacy and safety in patients with PFIC3 or PFIC6
Format: in vivo, human
Conditions: for Common TEAEs by preferred term: ALT increased / Common TEAEs by preferred term: INR increased / Common TEAEs by preferred term: Total bilirubin increased / Common TEAEs by preferred term: Vitamin D deficiency / Mild TEAEs / Moderate TEAEs / Serious TEAEs / Severe TEAEs / TEAEs / TEAEs leading to discontinuation: 120 μg/kg once daily
From the text: In PEDFIC 2, eligible patients are enrolled into one of 2 cohorts, based on the following criteria: Cohort 1 includes pediatric patients with PFIC1 or PFIC2 from PEDFIC 1 and cohort 2 includes patients of any age with any PFIC type; these are newly enrolled patients. In both cohorts, eligible patients are those with genetically confirmed PFIC, elevated serum bile acids (≥100 μmol/L), and significant pruritus (i.e., itching or scratching score of ≥2 per patient/caregiver report using the PRUCISION instrument). PEDFIC 2 includes a 72-week treatment period in which all patients receive oral, once-daily odevixibat 120 μg/kg.
Change from baseline in serum bile acids, pruritus, hepatic biochemical parameters, growth, and sleep; serum bile acid response (i.e., serum bile acids reduced ≥70% or levels ≤70 μmol/L); proportion of positive pruritus assessments (PPAs) at the patient level (i.e., pruritus score ≤1 or a ≥1-point drop from baseline); and treatment-emergent adverse events (TEAEs). Patient pruritus and sleep were evaluated twice daily by caregivers using the validated PRUCISION scale; pruritus responses range from 0 to 4, with higher scores indicating worse symptom.

[1] = 6 patients with PFIC3 or PFIC6, 120 μg/kg
[2] = patient with PFIC6, N=1, oral once-daily 120 μg/kg
[3] = patients with PFIC3, N=4, oral once-daily 120 μg/kg

CCCCC1(CCCC)CN(c2ccccc2)c2cc(SC)c(OCC(=O)N[C@@H](C(=O)N[C@@H](CC)C(=O)O)c3ccc(O)cc3)cc2S(=O)(=O)N1 [Odevixibat, 1,1-dioxo-3,3-dibutyl-5-phenyl-7-methylthio-8-(N-{(R)-α-[N-((S)-1-carboxypropyl)carbamoyl]-4-hydroxybenzyl}carbamoylmethoxy)-2,3,4,5-tetrahydro-1,2,5-benzothiadiazepine]
patients who met criteria for serum bile acid response at the last assessment (2 with PFIC3 and 1 with PFIC6, of 6 patients): Three
reductions in pruritus score from baseline to last assessment [1]: all but 1 patient (PFIC3) had reductions in pruritus score
reductions in serum bile acids from baseline to last assessment [1]: all patients with PFIC3 or PFIC6 had reductions in serum bile acids
Common TEAEs by preferred term: ALT increased (Patient 1 (PFIC3)): 0
Common TEAEs by preferred term: INR increased (Patient 1 (PFIC3)): 0
Common TEAEs by preferred term: Total bilirubin increased (Patient 1 (PFIC3)): 0
Common TEAEs by preferred term: Vitamin D deficiency (Patient 1 (PFIC3)): 0
Mild TEAEs (Patient 1 (PFIC3)): 0
Moderate TEAEs (Patient 1 (PFIC3)): 0
Serious TEAEs (Patient 1 (PFIC3)): 0
Severe TEAEs (Patient 1 (PFIC3)): 0
TEAEs (Patient 1 (PFIC3)): 0
TEAEs leading to discontinuation (Patient 1 (PFIC3)): 0
Common TEAEs by preferred term: ALT increased (Patient 2 (PFIC3)): 0
Common TEAEs by preferred term: INR increased (Patient 2 (PFIC3)): 1
Common TEAEs by preferred term: Total bilirubin increased (Patient 2 (PFIC3)): 1
Common TEAEs by preferred term: Vitamin D deficiency (Patient 2 (PFIC3)): 0
Mild TEAEs (Patient 2 (PFIC3)): 1
Moderate TEAEs (Patient 2 (PFIC3)): 2
Serious TEAEs (Patient 2 (PFIC3)): 0
Severe TEAEs (Patient 2 (PFIC3)): 0
TEAEs (Patient 2 (PFIC3)): 3
TEAEs leading to discontinuation (Patient 2 (PFIC3)): 0
Common TEAEs by preferred term: ALT increased (Patient 3 (PFIC3)): 1
Common TEAEs by preferred term: INR increased (Patient 3 (PFIC3)): 1
Common TEAEs by preferred term: Total bilirubin increased (Patient 3 (PFIC3)): 2
Common TEAEs by preferred term: Vitamin D deficiency (Patient 3 (PFIC3)): 0
Mild TEAEs (Patient 3 (PFIC3)): 0
Moderate TEAEs (Patient 3 (PFIC3)): 4
Serious TEAEs (Patient 3 (PFIC3)): 0
Severe TEAEs (Patient 3 (PFIC3)): 1
TEAEs (Patient 3 (PFIC3)): 5
TEAEs leading to discontinuation (Patient 3 (PFIC3)): 0
Common TEAEs by preferred term: ALT increased (Patient 4 (PFIC3)): 1
Common TEAEs by preferred term: INR increased (Patient 4 (PFIC3)): 0
Common TEAEs by preferred term: Total bilirubin increased (Patient 4 (PFIC3)): 0
Common TEAEs by preferred term: Vitamin D deficiency (Patient 4 (PFIC3)): 1
Mild TEAEs (Patient 4 (PFIC3)): 2
Moderate TEAEs (Patient 4 (PFIC3)): 0
Serious TEAEs (Patient 4 (PFIC3)): 0
Severe TEAEs (Patient 4 (PFIC3)): 3
TEAEs (Patient 4 (PFIC3)): 5
TEAEs leading to discontinuation (Patient 4 (PFIC3)): 0
Common TEAEs by preferred term: ALT increased (Patient 5 (PFIC3)): 0
Common TEAEs by preferred term: INR increased (Patient 5 (PFIC3)): 0
Common TEAEs by preferred term: Total bilirubin increased (Patient 5 (PFIC3)): 0
Common TEAEs by preferred term: Vitamin D deficiency (Patient 5 (PFIC3)): 2
Mild TEAEs (Patient 5 (PFIC3)): 3
Moderate TEAEs (Patient 5 (PFIC3)): 0
Serious TEAEs (Patient 5 (PFIC3)): 0
Severe TEAEs (Patient 5 (PFIC3)): 0
TEAEs (Patient 5 (PFIC3)): 3
TEAEs leading to discontinuation (Patient 5 (PFIC3)): 0
Common TEAEs by preferred term: ALT increased (Patient 6 (PFIC6)): 0
Common TEAEs by preferred term: INR increased (Patient 6 (PFIC6)): 0
Common TEAEs by preferred term: Total bilirubin increased (Patient 6 (PFIC6)): 0
Common TEAEs by preferred term: Vitamin D deficiency (Patient 6 (PFIC6)): 0
Mild TEAEs (Patient 6 (PFIC6)): 1
Moderate TEAEs (Patient 6 (PFIC6)): 0
Serious TEAEs (Patient 6 (PFIC6)): 0
Severe TEAEs (Patient 6 (PFIC6)): 0
TEAEs (Patient 6 (PFIC6)): 1
TEAEs leading to discontinuation (Patient 6 (PFIC6)): 0
% of days needing help falling asleep, change from baseline to weeks 34-36 [2]: −21^a %
% of days needing soothing, change from baseline to weeks 34-36 [2]: −36^a %
% of days sleeping with caregiver, change from baseline to weeks 34-36 [2]: 0^a %
% of days with bleeding associated with scratching, change from baseline to weeks 34-36 [2]: 0^a %
Height Z score, change from baseline to week 36 [2]: 0.1
Pruritus score, change from baseline to weeks 34-36 [2]: −1.8^a
Serum ALT, change from baseline to week 36 [2]: 89 U/L
Serum bile acids, change from baseline to week 36 [2]: -78 µmol/L
Total bilirubin, change from baseline to week 36 [2]: -83 µmol/L
Weight Z score, change from baseline to week 36 [2]: 0.5
% of days needing help falling asleep, mean (SE) change from baseline to weeks 34-36 [3]: −29 (24)^a %
% of days needing soothing, mean (SE) change from baseline to weeks 34-36 [3]: −28 (21)^a %
% of days sleeping with caregiver, mean (SE) change from baseline to weeks 34-36 [3]: −27 (22)^a %
% of days with bleeding associated with scratching, mean (SE) change from baseline to weeks 34-36 [3]: 6 (6)^a %
Height Z score, mean (SE) change from baseline to week 36 [3]: 0.2 (0.2)
Pruritus score, mean (SE) change from baseline to weeks 34-36 [3]: −1.6 (0.4)^a
Serum ALT, mean (SE) change from baseline to week 36 [3]: 67 (21) U/L
Serum bile acids, mean (SE) change from baseline to week 36 [3]: −91 (37) μmol/L
Total bilirubin, mean (SE) change from baseline to week 36 [3]: 18 (13) μmol/L
Weight Z score, mean (SE) change from baseline to week 36 [3]: 0.1 (0.4)
patients who experienced any TEAE (patients with PFIC3 or PFIC6): 5 of 6
serious TEAEs, TEAEs leading to discontinuation, or deaths (patients with PFIC3 or PFIC6): no serious TEAEs, TEAEs leading to discontinuation, or deaths
tolerability (patients with PFIC3 or PFIC6, up to the data cutoff in PEDFIC 2): generally well tolerated
positive pruritus assessments (PPAs) (weeks 0-22, 1 additional patient with PFIC3): 99%
positive pruritus assessments (PPAs) (weeks 0-36, 5 patients with available data (4 with PFIC3, 1 with PFIC6)): ≥ 85%
